Test results from publication PMC3900249 (Clinical pharmacology and therapeutics, 2012).

Experiments:
[1] = single warfarin dose studies, healthy volunteers (n = 5 or 6); cited from earlier work
[2] = system: CYP2C9-mediated (S)-warfarin 7-hydroxylation; experiment: Prediction of in vivo warfarin drug interaction from [I]/KI and [I]u/KI,u; set-up: species or system human; conditions: equation 1

## CC(=O)C[C@@H](c1ccccc1)c1c(O)c2ccccc2oc1=O [(S)-warfarin]
[1]
  actual increase in the mean AUC caused by the drug interaction with AMIO: 27 to 110%
[2]; sum of [I]/KI ratios of AMIO and circulating metabolites
  predicted increase in AUC: 6 fold
[2]; sum of [I]u/KI,u ratios of AMIO and circulating metabolites
  predicted increase in AUC: 6 fold
